Experimental data taken from patent US11999736B1, “Pyrazino[2′,1′:2,3]imidazo[4,5-b][1,7]naphthyridines compounds as CK2 inhibitors” (KING FAISAL UNIVERSITY, priority 2023, dated 2024).

Tests used:
[1] = test system: PC3 (prostate) cancer cell line; experiment: In vitro cytotoxic activity MTT assay, PC3; assay type: cell-based; settings: Homo sapiens, PC3 (prostate) cells, exposed for 96 hours, read-out: IC50, concentration of compound eliciting a 50% inhibition of cell proliferation
Experimental: (§1) Compounds 1-16 were screened for their in vitro cytotoxic activity utilizing a 3-(4,5-dimethyl-thiazol-2-yl)-2,5-diphenyltetrazolium bromide (MTT) assay against selected cancer human cell lines consisting of PC3 (prostate), HCT116 (colon), A375 (melanoma), H1299 (lung), MIAPaCa-2 (pancreas), HL60 (leukemia), MCF7 (breast), MDA-MB-231 (breast) (T. Mosmann, J. Immunol. Meth., 1983, 65, 55-63). The cells were cultured at 37° C. in RMPI1640 medium supplemented with 10% fetal bovine serum, 50 IU/mL penicillin, and 50 μg/mL streptomycin in a 5% CO2 incubator. All cells were sub-cultured 3 times/week by trypsinisation. Viable cells were seeded and allowed to adhere for 12 h before a test drug was added in 96-well plates at an initial density of 1.0×10^5 cells/mL. Tumor cell lines were separately exposed to various concentrations of the tested compounds followed by incubation at a temperature of 37° C. during 96 hours inside a medium of fresh RMPI 1640. Cells were subsequently incubated at 37° C. using MTT at 0.5 mg/mL during 4 hours. After removal of supernatant, formazan crystals were dissolved in isopropanol and the optical density was measured at 570 nm. CX-4945 was used as a positive control.

[2] = test system: HCT116 (colon) cancer cell line; experiment: In vitro cytotoxic activity MTT assay, HCT116; assay type: cell-based; settings: Homo sapiens, HCT-116; HCT116 (colon) cells, exposed for 96 hours; read-out: IC50, concentration of compound eliciting a 50% inhibition of cell proliferation
Experimental: as §1

[3] = test system: A375 (melanoma) cancer cell line; experiment: In vitro cytotoxic activity MTT assay, A375; assay type: cell-based; settings: Homo sapiens, A-375; A375 (melanoma) cells, exposed for 96 hours; read-out: IC50, concentration of compound eliciting a 50% inhibition of cell proliferation
Experimental: as §1

[4] = test system: H1299 (lung) cancer cell line; experiment: In vitro cytotoxic activity MTT assay, H1299; assay type: cell-based; settings: Homo sapiens, NCI-H1299; H1299 (lung) cells, exposed for 96 hours; read-out: IC50, concentration of compound eliciting a 50% inhibition of cell proliferation
Experimental: as §1

[5] = test system: MIAPaCa-2 (pancreas) cancer cell line; experiment: In vitro cytotoxic activity MTT assay, MIAPaCa-2; assay type: cell-based; settings: Homo sapiens, MIA PaCa-2; MIAPaCa-2 (pancreas) cells, exposed for 96 hours; read-out: IC50, concentration of compound eliciting a 50% inhibition of cell proliferation
Experimental: as §1

[6] = test system: HL60 (leukemia) cancer cell line; experiment: In vitro cytotoxic activity MTT assay, HL60; assay type: cell-based; settings: Homo sapiens, HL-60; HL60 (leukemia) cells, exposed for 96 hours; read-out: IC50, concentration of compound eliciting a 50% inhibition of cell proliferation
Experimental: as §1

[7] = test system: MCF7 (breast) cancer cell line; experiment: In vitro cytotoxic activity MTT assay, MCF7; assay type: cell-based; settings: Homo sapiens; MCF7 (breast) cells, exposed for 96 hours; read-out: IC50, concentration of compound eliciting a 50% inhibition of cell proliferation
Experimental: as §1

[8] = test system: MDA-MB-231 (breast) cancer cell line; experiment: In vitro cytotoxic activity MTT assay, MDA-MB-231; assay type: cell-based; settings: Homo sapiens; MDA-MB-231 (breast) cells, exposed for 96 hours; read-out: IC50, concentration of compound eliciting a 50% inhibition of cell proliferation
Experimental: as §1

[9] = target: T1, recombinant human CK2 (holoenzyme) (Homo sapiens, UniProt P68400); experiment: CK2 Kinase Assay (radiometric, [γ-33P] ATP); assay type: biochemical; settings: final ATP concentration 15 μM, 10 min at 30° C., eight concentrations; read-out: protein kinase CK2 inhibition IC50
T1 construct: purchased Millipore
Experimental: CK2 Kinase Assay was conducted using the protocol as described in Pierre F. et al; J. Med. Chem. 2011, 54, 635-654. The tested compounds in aqueous solution were added at a volume of 10 μL to a reaction mixture comprising 10 μL of assay dilution buffer (ADB; 20 mM MOPS, pH 7.2, 25 mM P-glycerol phosphate, 5 mM EGTA, 1 mM sodium orthovanadate, and 1 mM dithiothreitol), 10 μL of substrate peptide (RRRDDDSDDD, dissolved in ADB at a concentration of 1 mM), 10 μL of recombinant human CK2 (RROP-holoenzyme, 25 ng dissolved in ADB; Millipore). Reactions were initiated by the addition of 10 μL of ATP solution (90% 75 mMMgCl2, 75 μM ATP (final ATP concentration:15 μM) dissolved in ADB; 10% [γ-33P] ATP (stock 1mCi/100 μL; 3000 Ci/mmol (Perkin-Elmer) and maintained for 10 min at 30° C. The reactions were quenched with 100 μL of 0.75% phosphoric acid and then transferred to and filtered through a phosphor cellulose filter plate (Millipore). After washing each well five times with 0.75% phosphoric acid, the plate was dried under vacuum for 5 min and, following the addition of 15 μL of scintillation fluid to each well, the residual radioactivity was measured using a Wallac luminescence counter. The IC50 values were derived from eight concentrations of test inhibitors.

T1 sequence (P68400 whole entry): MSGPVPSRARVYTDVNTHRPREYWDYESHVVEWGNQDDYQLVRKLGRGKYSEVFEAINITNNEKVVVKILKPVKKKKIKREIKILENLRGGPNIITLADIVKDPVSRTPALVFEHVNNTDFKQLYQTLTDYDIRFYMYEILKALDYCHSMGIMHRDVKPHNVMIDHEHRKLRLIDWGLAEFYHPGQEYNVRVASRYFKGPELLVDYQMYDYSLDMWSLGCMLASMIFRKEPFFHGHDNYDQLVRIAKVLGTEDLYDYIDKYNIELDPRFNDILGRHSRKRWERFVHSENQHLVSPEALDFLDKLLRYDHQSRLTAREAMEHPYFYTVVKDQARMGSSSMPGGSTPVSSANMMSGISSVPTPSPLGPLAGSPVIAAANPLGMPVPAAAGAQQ
T1 sequence (P67870 whole entry partner): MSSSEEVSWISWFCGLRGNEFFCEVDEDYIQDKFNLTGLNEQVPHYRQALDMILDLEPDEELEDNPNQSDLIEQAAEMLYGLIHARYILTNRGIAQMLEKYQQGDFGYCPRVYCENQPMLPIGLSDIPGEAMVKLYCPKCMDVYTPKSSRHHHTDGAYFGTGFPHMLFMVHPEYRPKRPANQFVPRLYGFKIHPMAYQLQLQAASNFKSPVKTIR

SMILES: Clc1cccc(Nc2c3ccncc3nc3c2nc2cnccn23)c1 [Compound 1, N-(3-chlorophenyl)pyrazino[2′,1′:2,3]imidazo[4,5-b][1,7]naphthyridin-11-amine]
- IC50 [1]: 1900 nM
- IC50 [2]: 1400 nM
- IC50 [3]: 3200 nM
- IC50 [4]: 2900 nM
- IC50 [5]: 1100 nM
- IC50 [6]: 2800 nM
- IC50 [7]: 6300 nM
- IC50 [8]: 5000 nM
- IC50 [9]: 92 nM
